# Experimental data reported in US20240158446A1, “CYCLIC COMPOUND HAVING SELECTIVE INHIBITORY ACTION ON KRAS OVER HRAS AND NRAS” (CHUGAI SEIYAKU KABUSHIKI KAISHA, priority 2021, published 2024).
# What was measured:
# [1] = biological target: GDP-bound KRAS wild-type protein (Homo sapiens, UniProt P01116); assay: Binding to KRAS by surface plasmon resonance (SPR), Single Cycle Kinetics; conditions: SPR Single Cycle Kinetics, GDP-bound KRAS wild-type protein, 1:1 binding model; read-out: KRAS KD
# [2] = biological target: GDP-bound NRAS wild-type protein (Homo sapiens, UniProt P01111); assay: Binding to NRAS by surface plasmon resonance (SPR), Single Cycle Kinetics; conditions: SPR KD ratio NRAS/KRAS, class symbols
# [3] = biological target: GDP-bound HRAS wild-type protein (Homo sapiens, UniProt P01112); assay: Binding to HRAS by surface plasmon resonance (SPR), Single Cycle Kinetics; conditions: SPR KD ratio HRAS/KRAS, class symbols
# [4] = tested on: human lung cancer strain NCI-H441;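 further: cell proliferation inhibition after four days measured by CellTiter-Glo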
# GDP-bound NRAS wild-type protein, sequence (P01111 whole entry): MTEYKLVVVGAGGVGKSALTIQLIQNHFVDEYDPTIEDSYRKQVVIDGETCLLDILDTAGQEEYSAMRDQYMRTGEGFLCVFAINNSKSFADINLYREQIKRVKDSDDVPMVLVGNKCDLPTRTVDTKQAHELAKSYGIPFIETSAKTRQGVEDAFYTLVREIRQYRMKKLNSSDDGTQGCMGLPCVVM
# GDP-bound HRAS wild-type protein, sequence (P01112 whole entry): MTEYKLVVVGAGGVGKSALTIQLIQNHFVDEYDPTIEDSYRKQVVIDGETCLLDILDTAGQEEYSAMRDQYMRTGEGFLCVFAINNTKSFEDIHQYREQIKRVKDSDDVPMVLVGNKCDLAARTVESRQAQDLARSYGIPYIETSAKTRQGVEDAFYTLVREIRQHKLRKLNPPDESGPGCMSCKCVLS
# GDP-bound KRAS wild-type protein, sequence (P01116 whole entry): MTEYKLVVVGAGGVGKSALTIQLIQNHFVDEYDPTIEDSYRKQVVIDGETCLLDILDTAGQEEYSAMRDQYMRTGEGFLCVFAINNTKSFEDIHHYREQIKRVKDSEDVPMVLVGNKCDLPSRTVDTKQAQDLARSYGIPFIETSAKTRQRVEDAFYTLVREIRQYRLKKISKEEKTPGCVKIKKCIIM
Compound,Kd [1] [nM],NRAS/KRAS (ratio of KD value with respect to GDP-bound NRAS wild-type protein to KD value with respect to KRAS) [2],HRAS/KRAS (ratio of KD value with respect to GDP-bound HRAS wild-type protein to KD value with respect to KRAS) [3],IC50 [4] [nM]
CCOC[C@H]1C(=O)N[C@@H]([C@@H](C)CC)C(=O)N(C2CC2)CC(=O)N(C)[C@H]2C/C=C\CCN(C2=O)[C@@H](Cc2ccc(C)cc2)C(=O)N(C)CC(=O)N[C@@H](CCc2cc(F)c(C(F)(F)F)c(F)c2)C(=O)N2C[C@H](OCC)C[C@H]2C(=O)NC2(CC(C)(C)C2)C(=O)N(C)[C@@H](CC(C)(C)C)C(=O)N(C)[C@H](C(=O)N(C)C)CC(=O)N1C [PP2720],0.35,A (a compound having 10 or more and less than 20 is denoted as A),A (a compound having 10 or more and less than 20 is denoted as A),7.7
CCC[C@H]1C(=O)N[C@@H]([C@@H](C)CC)C(=O)N(C2CC2)CC(=O)N(C)[C@H]2C/C=C\CCN(C2=O)[C@@H](Cc2ccc(C)cc2)C(=O)N(C)CC(=O)N[C@@H](CCc2ccc(C(F)(F)F)c(OC)c2)C(=O)N2C[C@H](OCC)C[C@H]2C(=O)NC2(CC(C)(C)C2)C(=O)N(C)[C@@H](CC(C)(C)C)C(=O)N(C)[C@H](C(=O)N(C)C)CC(=O)N1C [PP2722],0.4,B (a compound having 3 or more and less than 10 is denoted as B),B (a compound having 3 or more and less than 10 is denoted as B),13.9
CCOC[C@H]1C(=O)N[C@@H]([C@@H](C)CC)C(=O)N(C2CC2)CC(=O)N(C)[C@H]2C/C=C\CCN(C2=O)[C@@H](Cc2ccc(C)cc2)C(=O)N(C)CC(=O)N[C@@H](CCc2ccc(C(F)(F)F)c(OC)c2)C(=O)N2C[C@H](OCC)C[C@H]2C(=O)NC2(CC(C)(C)C2)C(=O)N(C)[C@@H](CC(C)(C)C)C(=O)N(C)[C@H](C(=O)N(C)C)CC(=O)N1C [PP2724],0.43,A (a compound having 10 or more and less than 20 is denoted as A),B (a compound having 3 or more and less than 10 is denoted as B),20
CCC[C@H]1C(=O)N[C@@H]([C@@H](C)CC)C(=O)N(C2CC2)CC(=O)N(C)[C@H]2C/C=C\CCN(C2=O)[C@@H](Cc2ccc(C)cc2)C(=O)N(C)CC(=O)N[C@@H](CCc2ccc(Cl)c(Cl)c2)C(=O)N2C[C@H](OCC)C[C@H]2C(=O)NC2(CC(C)(C)C2)C(=O)N(C)[C@@H](CC(C)(C)C)C(=O)N(C)[C@H](C(=O)N(C)C)CC(=O)N1C [PP2726],1.1,AA (a compound having 20 or more is denoted as AA),A (a compound having 10 or more and less than 20 is denoted as A),51
CCOC[C@H]1C(=O)N[C@@H]([C@@H](C)CC)C(=O)N(C2CC2)CC(=O)N(C)[C@H]2C/C=C\CCN(C2=O)[C@@H](Cc2ccc(C)cc2)C(=O)N(C)CC(=O)N[C@@H](CCc2ccc(Cl)c(Cl)c2)C(=O)N2C[C@H](OCC)C[C@H]2C(=O)NC2(CC(C)(C)C2)C(=O)N(C)[C@@H](CC(C)(C)C)C(=O)N(C)[C@H](C(=O)N(C)C)CC(=O)N1C [PP2728],1.1,AA (a compound having 20 or more is denoted as AA),A (a compound having 10 or more and less than 20 is denoted as A),54.3
CCOC[C@H]1C(=O)N[C@@H]([C@@H](C)CC)C(=O)N(C)CC(=O)N(C)[C@H]2C/C=C\CCN(C2=O)[C@@H](Cc2ccc(C(F)(F)F)cc2)C(=O)N(C)CC(=O)N[C@@H](CCc2cc(F)c(C(F)(F)F)c(F)c2)C(=O)N2C[C@H](OCC)C[C@H]2C(=O)NC2(CC(C)(C)C2)C(=O)N(C)[C@@H](CC(C)(C)C)C(=O)N(C)[C@H](C(=O)N(C)C)CC(=O)N1C [PP2732],0.067,A (a compound having 10 or more and less than 20 is denoted as A),A (a compound having 10 or more and less than 20 is denoted as A),5.3
CCC[C@H]1C(=O)N[C@@H]([C@@H](C)CC)C(=O)N(C)CC(=O)N(C)[C@H]2C/C=C\CCN(C2=O)[C@@H](Cc2ccc(C(F)(F)F)cc2)C(=O)N(C)CC(=O)N[C@@H](CCc2ccc(C(F)(F)F)c(OC)c2)C(=O)N2C[C@H](OCC)C[C@H]2C(=O)NC2(CC(C)(C)C2)C(=O)N(C)[C@@H](CC(C)(C)C)C(=O)N(C)[C@H](C(=O)N(C)C)CC(=O)N1C [PP2734],0.1,A (a compound having 10 or more and less than 20 is denoted as A),B (a compound having 3 or more and less than 10 is denoted as B),3.1
CCOC[C@H]1C(=O)N[C@@H]([C@@H](C)CC)C(=O)N(C)CC(=O)N(C)[C@H]2C/C=C\CCN(C2=O)[C@@H](Cc2ccc(C(F)(F)F)cc2)C(=O)N(C)CC(=O)N[C@@H](CCc2ccc(C(F)(F)F)c(OC)c2)C(=O)N2C[C@H](OCC)C[C@H]2C(=O)NC2(CC(C)(C)C2)C(=O)N(C)[C@@H](CC(C)(C)C)C(=O)N(C)[C@H](C(=O)N(C)C)CC(=O)N1C [PP2736],0.061,A (a compound having 10 or more and less than 20 is denoted as A),A (a compound having 10 or more and less than 20 is denoted as A),7.5
CCC[C@H]1C(=O)N[C@@H]([C@@H](C)CC)C(=O)N(C)CC(=O)N(C)[C@H]2C/C=C\CCN(C2=O)[C@@H](Cc2ccc(C(F)(F)F)cc2)C(=O)N(C)CC(=O)N[C@@H](CCc2ccc(Cl)c(Cl)c2)C(=O)N2C[C@H](OCC)C[C@H]2C(=O)NC2(CC(C)(C)C2)C(=O)N(C)[C@@H](CC(C)(C)C)C(=O)N(C)[C@H](C(=O)N(C)C)CC(=O)N1C [PP2738],0.17,AA (a compound having 20 or more is denoted as AA),A (a compound having 10 or more and less than 20 is denoted as A),8.5
CCOC[C@H]1C(=O)N[C@@H]([C@@H](C)CC)C(=O)N(C)CC(=O)N(C)[C@H]2C/C=C\CCN(C2=O)[C@@H](Cc2ccc(C(F)(F)F)cc2)C(=O)N(C)CC(=O)N[C@@H](CCc2ccc(Cl)c(Cl)c2)C(=O)N2C[C@H](OCC)C[C@H]2C(=O)NC2(CC(C)(C)C2)C(=O)N(C)[C@@H](CC(C)(C)C)C(=O)N(C)[C@H](C(=O)N(C)C)CC(=O)N1C [PP2740],0.17,AA (a compound having 20 or more is denoted as AA),A (a compound having 10 or more and less than 20 is denoted as A),24.2
CCO[C@@H]1C[C@H]2C(=O)NC3(CC(C)(C)C3)C(=O)N(C)[C@@H](CC(C)(C)C)C(=O)N(C)[C@H](C(=O)N(C)C)CC(=O)N(C)[C@@H](COC)C(=O)N[C@@H]([C@@H](C)CC)C(=O)N(C3CC3)CC(=O)N(C)[C@H]3C/C=C\CCN(C3=O)[C@@H](Cc3ccc(C(F)(F)F)cc3)C(=O)N(C)CC(=O)N[C@@H](CCc3cc(F)c(C(F)(F)F)c(F)c3)C(=O)N2C1 [PP2744],0.23,A (a compound having 10 or more and less than 20 is denoted as A),A (a compound having 10 or more and less than 20 is denoted as A),10.7
CCC[C@H]1C(=O)N[C@@H]([C@@H](C)CC)C(=O)N(C2CC2)CC(=O)N(C)[C@H]2C/C=C\CCN(C2=O)[C@@H](Cc2ccc(C(F)(F)F)cc2)C(=O)N(C)CC(=O)N[C@@H](CCc2ccc(C(F)(F)F)c(OC)c2)C(=O)N2C[C@H](OCC)C[C@H]2C(=O)NC2(CC(C)(C)C2)C(=O)N(C)[C@@H](CC(C)(C)C)C(=O)N(C)[C@H](C(=O)N(C)C)CC(=O)N1C [PP2746],0.28,A (a compound having 10 or more and less than 20 is denoted as A),A (a compound having 10 or more and less than 20 is denoted as A),10.2
CCO[C@@H]1C[C@H]2C(=O)NC3(CC(C)(C)C3)C(=O)N(C)[C@@H](CC(C)(C)C)C(=O)N(C)[C@H](C(=O)N(C)C)CC(=O)N(C)[C@@H](COC)C(=O)N[C@@H]([C@@H](C)CC)C(=O)N(C3CC3)CC(=O)N(C)[C@H]3C/C=C\CCN(C3=O)[C@@H](Cc3ccc(C(F)(F)F)cc3)C(=O)N(C)CC(=O)N[C@@H](CCc3ccc(C(F)(F)F)c(OC)c3)C(=O)N2C1 [PP2748],0.2,A (a compound having 10 or more and less than 20 is denoted as A),A (a compound having 10 or more and less than 20 is denoted as A),7.1
CCC[C@H]1C(=O)N[C@@H]([C@@H](C)CC)C(=O)N(C2CC2)CC(=O)N(C)[C@H]2C/C=C\CCN(C2=O)[C@@H](Cc2ccc(C(F)(F)F)cc2)C(=O)N(C)CC(=O)N[C@@H](CCc2ccc(Cl)c(Cl)c2)C(=O)N2C[C@H](OCC)C[C@H]2C(=O)NC2(CC(C)(C)C2)C(=O)N(C)[C@@H](CC(C)(C)C)C(=O)N(C)[C@H](C(=O)N(C)C)CC(=O)N1C [PP2749],0.87,AA (a compound having 20 or more is denoted as AA),A (a compound having 10 or more and less than 20 is denoted as A),22.1
